Laboratory results reported in patent US8952169B2 (Genentech, Inc., priority 2012, dated 2015).

What was measured:
hNav1.7 [1] = target: T1, hNav1.7 (Homo sapiens (Human), UniProt Q15858); experiment: Patch voltage clamp electrophysiology (PatchXpress), HEK-293 cells, inactivated state block; assay type: cell-based; details: HEK-293 cells, β1 coexpressed; inactivated state, holding −60 mV; read-out: EP_PX 293 hNav1.7 (IC50)
hNav1.7 [2] = target: T1, hNav1.7; experiment: Tritiated aryl sulfonamide binding to membranes from cells expressing hNav1.7 and the β1 subunit (competitive binding); details: membranes with hNav1.7 and β1 subunit; [3H]compound displacement, 18 h, room temperature; read-out: NaV1.7 395 Memb Binding (IC50)
In short: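 Competitive displacement of 100 μM [3H]-labelled tritiated aryl sulfonamide from hNav1.7/β1 membranes, 18 h at room temperature in 100 mM NaCl, 20 mM Tris HCl pH 7.4. Non-specific binding defined with 1 μM unlabelled compound. Filter-bound radioactivity measured by liquid scintillation counting.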

T1 sequence (Q15858 whole entry, looked up): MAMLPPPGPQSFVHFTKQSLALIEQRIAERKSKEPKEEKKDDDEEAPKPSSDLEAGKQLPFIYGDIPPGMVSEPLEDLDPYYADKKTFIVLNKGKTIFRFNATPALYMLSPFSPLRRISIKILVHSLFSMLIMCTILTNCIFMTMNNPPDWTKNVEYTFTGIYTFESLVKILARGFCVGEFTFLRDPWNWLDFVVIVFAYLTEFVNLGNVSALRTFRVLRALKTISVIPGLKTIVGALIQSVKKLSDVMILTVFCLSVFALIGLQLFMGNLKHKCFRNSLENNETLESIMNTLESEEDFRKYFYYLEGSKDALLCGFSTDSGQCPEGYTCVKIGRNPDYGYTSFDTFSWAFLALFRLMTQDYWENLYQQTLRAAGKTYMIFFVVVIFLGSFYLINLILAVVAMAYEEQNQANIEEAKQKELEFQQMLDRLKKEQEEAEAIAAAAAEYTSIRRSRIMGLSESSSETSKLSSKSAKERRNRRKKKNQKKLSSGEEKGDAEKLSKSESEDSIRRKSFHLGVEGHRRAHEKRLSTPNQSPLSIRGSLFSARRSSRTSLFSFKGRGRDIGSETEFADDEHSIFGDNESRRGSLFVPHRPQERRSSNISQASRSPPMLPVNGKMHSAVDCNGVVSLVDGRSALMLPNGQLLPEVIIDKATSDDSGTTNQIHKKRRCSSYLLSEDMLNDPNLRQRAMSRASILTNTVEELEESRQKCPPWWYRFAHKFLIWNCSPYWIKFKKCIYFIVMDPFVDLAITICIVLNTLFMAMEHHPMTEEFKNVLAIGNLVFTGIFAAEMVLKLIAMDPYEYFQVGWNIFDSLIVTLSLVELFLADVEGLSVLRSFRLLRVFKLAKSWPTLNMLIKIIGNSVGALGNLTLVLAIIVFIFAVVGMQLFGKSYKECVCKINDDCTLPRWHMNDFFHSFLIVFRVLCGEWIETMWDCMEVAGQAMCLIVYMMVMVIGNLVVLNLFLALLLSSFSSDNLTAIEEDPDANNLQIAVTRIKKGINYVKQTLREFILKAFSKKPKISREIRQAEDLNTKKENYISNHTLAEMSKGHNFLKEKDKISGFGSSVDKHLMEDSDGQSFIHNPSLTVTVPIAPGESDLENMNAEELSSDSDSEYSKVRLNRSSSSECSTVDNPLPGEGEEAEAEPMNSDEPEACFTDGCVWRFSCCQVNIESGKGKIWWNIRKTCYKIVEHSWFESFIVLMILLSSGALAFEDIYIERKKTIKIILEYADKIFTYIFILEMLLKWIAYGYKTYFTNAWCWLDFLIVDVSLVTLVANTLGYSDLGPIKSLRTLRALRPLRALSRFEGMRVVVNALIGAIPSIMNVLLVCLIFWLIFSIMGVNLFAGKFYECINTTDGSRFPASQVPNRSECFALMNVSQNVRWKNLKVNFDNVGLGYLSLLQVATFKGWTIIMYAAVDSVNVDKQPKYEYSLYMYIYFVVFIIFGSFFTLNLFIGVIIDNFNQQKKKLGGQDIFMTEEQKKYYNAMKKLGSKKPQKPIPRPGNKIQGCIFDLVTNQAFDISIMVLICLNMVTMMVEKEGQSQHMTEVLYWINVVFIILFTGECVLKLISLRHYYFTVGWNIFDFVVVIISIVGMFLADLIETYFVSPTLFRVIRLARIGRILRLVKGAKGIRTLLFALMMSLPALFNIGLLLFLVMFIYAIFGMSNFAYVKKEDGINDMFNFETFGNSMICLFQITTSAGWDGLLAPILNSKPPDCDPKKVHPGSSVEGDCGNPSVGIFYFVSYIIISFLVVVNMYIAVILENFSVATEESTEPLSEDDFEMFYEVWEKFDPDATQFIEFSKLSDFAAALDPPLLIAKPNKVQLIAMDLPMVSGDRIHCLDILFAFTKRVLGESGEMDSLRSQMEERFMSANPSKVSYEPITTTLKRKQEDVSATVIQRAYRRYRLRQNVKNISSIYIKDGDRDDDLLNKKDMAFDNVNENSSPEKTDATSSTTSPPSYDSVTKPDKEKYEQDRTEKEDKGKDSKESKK
T1 sequence (Q07699 whole entry partner, looked up): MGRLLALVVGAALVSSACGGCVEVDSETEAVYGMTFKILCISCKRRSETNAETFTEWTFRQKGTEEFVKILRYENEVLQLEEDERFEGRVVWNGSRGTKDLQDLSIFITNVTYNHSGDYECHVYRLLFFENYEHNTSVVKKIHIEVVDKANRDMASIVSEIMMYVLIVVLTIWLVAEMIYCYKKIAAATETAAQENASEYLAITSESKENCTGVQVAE

Row | Compound | IC50 (hNav1.7 [1]) [nM] | IC50 (hNav1.7 [2]) [nM]
1 | CC1(COc2cc(F)c(C(=O)NS(=O)(=O)C3CC3)cc2C2CC2)CCC(C(F)(F)F)CC1 (stereo not drawn) [Example 426, 5-cyclopropyl-N-cyclopropylsulfonyl-2-fluoro-4-[[1-methyl-4-(trifluoromethyl)cyclohexyl]methoxy]benzamide] | 51 | 2
2 | O=C(NS(=O)(=O)C1CC1)c1cc(C2CC2)c(OCC23CCCCC2C3(F)F)cc1F (stereo not drawn) [Example 430, 5-cyclopropyl-N-cyclopropylsulfonyl-4-[(7,7-difluoronorcaran-1-yl)methoxy]-2-fluoro-benzamide] | 10 | 3
3 | CC1(COc2cc(F)c(C(=O)NS(=O)(=O)C3CC3)cc2C2CC2)CC=CCC1 (stereo not drawn) | 12 | 5
4 | O=C(NS(=O)(=O)C1CC1)c1cc(C2CC2)c(OCC2CCC3C(C2)C3(F)F)cc1F (stereo not drawn) | 9 | 8
5 | CO[C@]12CC3CC(C1)[C@@H](Oc1cc(F)c(C(=O)NS(=O)(=O)N4CCC4)cc1C1CC1)C(C3)C2 | 190 | 100
6 | O=C(NS(=O)(=O)N1CCC1)c1cc(C2CC2)c(O[C@H]2C3CC4CC2C[C@@](Cl)(C4)C3)cc1F | 94 | 10
7 | CC12CC3CC(C)(C1)CC(COc1cc(F)c(C(=O)NS(C)(=O)=O)cc1Cl)(C3)C2 [Example 23] | 22.9 | 13
8 | O=C(NS(=O)(=O)N1CCC1)c1cc(C2CC2)c(COC23CC4CC(CC(C4)C2)C3)cc1F [Example 320] | 140 | 17
9 | CC1(C)CCCC(Oc2cc(F)c(C(=O)NS(C)(=O)=O)cc2C2CC2)C1 (stereo not drawn) [Example 358, 5-cyclopropyl-4-((3,3-dimethylcyclohexyl)oxy)-2-fluoro-N-(methylsulfonyl)benzamide] | 62 | 12
10 | COC12CC3CC(C1)C(Oc1cc(F)c(C(=O)NS(C)(=O)=O)cc1Cl)C(C3)C2 (stereo not drawn) | 610 | 730
11 | COCCS(=O)(=O)NC(=O)c1cc(C2CC2)c(OCC23CCCCC2C3(F)F)cc1F (stereo not drawn) [Example 311] | 53 | 30
12 | O=C(NS(=O)(=O)N1CCC1)c1cc(C2CC2)c(OCC2CN(C(c3ccccc3)c3ccccc3)C2)cc1F (racemic) | 350 | 12
13 | O=C(NS(=O)(=O)N1CCC1)c1cc(C2CC2)c(OCC2CCCC(F)(F)C2)cc1F (stereo not drawn) | 43 | 22
14 | CS(=O)(=O)NC(=O)c1cc(C2CC2)c(OCC2CCCC(F)(F)C2)cc1F (stereo not drawn) [Example 402] | 300 | 22
15 | 4-(adamantan-1-ylmethoxy)-N-(azetidin-1-ylsulfonyl)-3-chloro-5-fluorobenzamide [Example 416] | 9 | 5
16 | O=C(NS(=O)(=O)N1CCC1)c1cc(C2CC2)c(O[C@@H]2C[C@@H]3CC[C@H]2C3)cc1F | 80 | 31
17 | O=C(NS(=O)(=O)N1CCC1)c1cc(Cl)c(OCC23CC4CC(CC(C4)C2)C3)c(F)c1F | 2300 | 370
18 | O=C(NS(=O)(=O)N1CCC1)c1cc(C2CC2)c(OCC2CCC3CC3C2)cc1F (stereo not drawn) [Example 432, N-(azetidin-1-ylsulfonyl)-5-cyclopropyl-2-fluoro-4-(norcaran-3-ylmethoxy)benzamide] | 32 | 22
19 | CS(=O)(=O)NC(=O)c1cc(Cl)c(OCC23CC4CC(CC(O)(C4)C2)C3)cc1F | 2250 | 10000
20 | CS(=O)(=O)NC(=O)c1cc(C2CC2)c(OCC2CCC3CC3C2)cc1F (stereo not drawn) | 2 | 9
21 | O=C(NS(=O)(=O)N1CCC(O)CC1)c1cc(C2CC2)c(OCC23CC4CC(CC(C4)C2)C3)cc1F | 23 | 26
22 | CC1(OCc2cc(F)c(C(=O)NS(C)(=O)=O)cc2Cl)CCC(F)(F)CC1 [Example 305] | 1400 | 310
23 | CC1(COc2cc(F)c(C(=O)NS(=O)(=O)N3CCC3)cc2C2CC2)CCC2(CC1)CC2(F)F (stereo not drawn) | 47 | 11
24 | [2H]C1([2H])C([2H])([2H])C([2H])([2H])C([2H])(COc2cc(F)c(C(=O)NS(=O)(=O)N3CCC3)cc2Cl)C([2H])([2H])C1([2H])[2H] | 310 | 160
25 | CN(C)S(=O)(=O)NC(=O)c1cc(Cl)c(OCC23CC4CC(CC(Cl)(C4)C2)C3)cc1F | 85.4 | 160
26 | O=C(NS(=O)(=O)N1CCC1)c1cc(C2CC2)c(OC2CCC3(CCCCC3)CC2)cc1F | 220 | 6.3

Row | Compound | IC50 (hNav1.7 [1]) [nM] | IC50 (hNav1.7 [2]) [nM]
27 | O=C(NS(=O)(=O)C1CC1)c1cc(C2CC2)c(OC2C3CC4CC(C3)CC2C4)cc1F (stereo not drawn) [Example 332] | 27 | 4
28 | O=C(NS(=O)(=O)N1CCC1)c1cc(C2CC2)c(OCC2CCC(C(F)(F)F)CC2)cc1F (stereo not drawn) [Example 429, N-(azetidin-1-ylsulfonyl)-5-cyclopropyl-2-fluoro-4-[[4-(trifluoromethyl)cyclohexyl]methoxy]benzamide] | 100 | 8
29 | O=C(NS(=O)(=O)N1CCC1)c1cc(C2CC2)c(O[C@H]2C3CC4CC2C[C@@](F)(C4)C3)cc1F | 24 | 21
30 | CS(=O)(=O)NC(=O)c1cc(C2CC2)c(O[C@H]2C[C@@H]3CC[C@H]2C3)cc1F | 24 | 74
31 | CS(=O)(=O)NC(=O)c1cc(C2CC2)c(O[C@H]2C3CC4CC2C[C@](F)(C4)C3)cc1F [Example 308] | 180 | 20
32 | O=C(NS(=O)(=O)N1CCC1)c1cc(C2CC2)c(O[C@H]2C3CC4CC2C[C@](F)(C4)C3)cc1F | 100 | 20
33 | O=C(NS(=O)(=O)N1CCC1)c1cc(C2CC2)c(OCC23CC4CC(C2)C(F)(F)C(C4)C3)cc1F | 6 | 4
34 | CCS(=O)(=O)NC(=O)c1cc(C2CC2)c(OCC2CCC3(CC2)CC3)cc1F | 23 | 3
35 | O=C(NS(=O)(=O)C1CC1)c1cc(C2CC2)c(OCC2CN(C(c3ccccc3)c3ccccc3)C2)cc1F (single isomer, unassigned) | 82 | 5
36 | CS(=O)(=O)NC(=O)c1cc(C2CC2)c(OCC2CCC3C(C2)C3(F)F)cc1F (stereo not drawn) | 19 | 21
37 | O=C(NS(=O)(=O)N1CCC1)c1cc(Cl)c(OC2CCC(F)(F)CC2)cc1F | 4400 | 980
38 | CS(=O)(=O)NC(=O)c1cc(C2CC2)c(OCC23CCCCC2C3(F)F)cc1F (stereo not drawn) [Example 310] | 10 | 84
39 | O=C(NS(=O)(=O)N1CC(F)C1)c1cc(C2CC2)c(O[C@H]2C3CC4CC2C[C@](Cl)(C4)C3)cc1F | 1200 | 20
40 | O=C(NS(=O)(=O)C1CC1)c1cc(C2CC2)c(OCC2CCC3CC3C2)cc1F (stereo not drawn) [Example 392] | 3 | 5
41 | CS(=O)(=O)NC(=O)c1cc(C2CC2)c(O[C@@H]2C[C@@H]3CC[C@H]2C3)cc1F | 230 | 45
42 | CC1(C)CCCC(COc2cc(F)c(C(=O)NS(=O)(=O)N3CCC3)cc2C2CC2)C1 (stereo not drawn) | 8 | 4
43 | O=C(NS(=O)(=O)N1CCC1)c1cc(C2CC2)c(OC2CCC3(CC2)CC3)cc1F | 29 | 23
44 | CN(C)S(=O)(=O)NC(=O)c1cc(Cl)c(OCC2(C(F)(F)F)CCC2)cc1F | 41.6 | 294
45 | CS(=O)(=O)NC(=O)c1cc(Cl)c(OCC23CC4CC(CC(C4)C2)C3)c(F)c1F | 1500 | 190
46 | O=C(NS(=O)(=O)N1CCC1)c1cc(C2CC2)c(OCC2(C(F)(F)F)CCC2)cc1F [Example 329] | 20 | 4
47 | CNS(=O)(=O)NC(=O)c1cc(C2CC2)c(OCC2CCCC(F)(F)C2)cc1F (stereo not drawn) [Example 403] | 910 | 90
48 | O=C(NS(=O)(=O)N1CC(F)C1)c1cc(C2CC2)c(O[C@H]2C3CC4CC2C[C@@](Cl)(C4)C3)cc1F | 890 | 28
49 | CC1CCCC(C)C1COc1cc(F)c(C(=O)NS(=O)(=O)N2CCC2)cc1Cl (stereo not drawn) | 74 | 25
50 | O=C(NS(=O)(=O)N1CCC1)c1cc(C2CC2)c(O[C@H]2C[C@@H]3CC[C@H]2C3)cc1F | 32 | 70
51 | CC1(C)[C@@H]2CC[C@@]1(C)[C@@H](Oc1cc(F)c(C(=O)NS(C)(=O)=O)cc1Cl)C2 [Example 25] | 27 | 220
